Assay results reported in patent publication US12459974B2, “Bicyclic peptide ligands specific for Nectin-4” (priority 2018, dated 2025).
*1 amine or outer side, *2 acyl side, *3 side chain or, on linkers, in order; H or OH if unused. Where a SMILES comes first, the peptide text is derived from it. Bridges are numbered along the chain shown (N, C = ends). Roman numbers before positions name the chains, in order. [ ]: non-standard residue; d: D form. The star is where a group is joined. ξ: configuration not given here. TATA = O=C(CC[*:1])N1CN(C(=O)CC[*:2])CN(C(=O)CC[*:3])C1; Dolaproine = CO[C@@H]([C@@H]1CCCN1)[C@@H](C)C(=O)O; X1 = CC[C@H](C)C(C(CC(=O)[*:2])OC)N(C)[*:1]; 1Nal = N[C@@H](Cc1cccc2ccccc12)C(=O)O; X3 = O=C(CCCC(=O)[*:2])NCCC(=O)[*:1]; PABC = O=C(OCc1ccc(N[*:1])cc1)[*:2]; Hyp = O=C(O)[C@@H]1C[C@@H](O)CN1; hArg = N=C(N)NCCCC[C@H](N)C(=O)O; Cit = NC(=O)NCCC[C@H](N)C(=O)O; X2 = CC(N*)[C@@H](O)c1ccccc1; ξNMeV = CNC(C(=O)O)C(C)C; ξV = CC(C)C(N)C(=O)O; Sar = CNCC(=O)O

Legend:
[1] = BCY8245 (BT8009) at 3 mg/kg
Experimental: At various timepoints, animals were euthanized and plasma and tumour taken and snap frozen. Samples were analysed for MMAE.

human Nectin-4 = target: T1, human Nectin-4 (Homo sapiens, UniProt Q96NY8); assay: Nectin-4 Biacore SPR binding assay
T1 sequence (Q96NY8 32-349): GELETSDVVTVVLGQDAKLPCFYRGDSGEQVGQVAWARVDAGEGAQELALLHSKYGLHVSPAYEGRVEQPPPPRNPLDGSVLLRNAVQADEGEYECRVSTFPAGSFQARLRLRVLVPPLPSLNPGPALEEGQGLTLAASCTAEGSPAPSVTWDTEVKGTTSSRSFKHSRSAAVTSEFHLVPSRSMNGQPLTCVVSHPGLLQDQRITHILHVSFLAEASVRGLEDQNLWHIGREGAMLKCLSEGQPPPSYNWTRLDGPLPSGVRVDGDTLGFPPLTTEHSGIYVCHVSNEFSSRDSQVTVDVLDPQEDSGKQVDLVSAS
Experimental: Biacore experiments were performed to determine ka (M^−1 s^−1), kd (s^−1), KD (nM) values of monomeric peptides binding to human Necin-4 protein (obtained from Charles River).
Human Nectin-4 (residues Gly32-Ser349; NCBI RefSeq: NP_112178.2) with a gp67 signal sequence and C-terminal FLAG tag was cloned into pFastbac-1 and baculovirus made using standard Bac-to-Bac™ protocols (Life Technologies). Sf21 cells at 1×10^6 ml^−1 in Excell-420 medium (Sigma) at 27° C. were infected at an MOI of 2 with a P1 virus stock and the supernatant harvested at 72 hours. […] The protein was eluted with 100 μg/ml FLAG peptide. The eluted protein was concentrated to 2 ml and loaded onto an S-200 Superdex column (GE Healthcare) in PBS at 1 ml/min. 2 ml fractions were collected and the fractions containing Nectin-4 protein were concentrated to 16 mg/ml.
The protein was extensively desalted to remove uncoupled biotin using spin columns into PBS.
For analysis of peptide binding, a Biacore 3000 instrument was used utilising a CM5 chip (GE Healthcare). Streptavidin was immobilized on the chip using standard amine-coupling chemistry at 25° C. with HBS-N (10 mM HEPES, 0.15 M NaCl, pH 7.4) as the running buffer. Briefly, the carboxymethyl dextran surface was activated with a 7 minute injection of a 1:1 ratio of 0.4 M 1-ethyl-3-(3-dimethylaminopropyl) carbodiimide hydrochloride (EDC)/0.1 M N-hydroxy succinimide (NHS) at a flow rate of 10 μl/min. For capture of streptavidin, the protein was diluted to 0.2 mg/ml in 10 mM sodium acetate (pH 4.5) and captured by injecting 120 μl of streptavidin onto the activated chip surface. Residual activated groups were blocked with a 7 minute injection of 1 M ethanolamine (pH 8.5) and biotinylated Nectin-4 captured to a level of 1,200-1,800 RU. Buffer was changed to PBS/0.05% Tween 20 and a dilution series of the peptides was prepared in this buffer with a final DMSO concentration of 0.5%. The top peptide concentration was 100 nM with 6 further 2-fold dilutions. The SPR analysis was run at 25° C. at a flow rate of 50 μl/min with 60 seconds association and dissociation between 400 and 1,200 seconds depending upon the individual peptide. Data were corrected for DMSO excluded volume effects. All data were double-referenced for blank injections and reference surface using standard processing procedures and data processing and kinetic fitting were performed using Scrubber software, version 2.0c (BioLogic Software). Data were fitted using simple 1:1 binding model allowing for mass transport effects where appropriate.

NCI-H292 xenograft = assay: Example 9.5: in vivo efficacy in NCI-H292 xenograft in Balb/c nude mice; design: species or system Mus Musculus
HT-1376 xenograft = assay: Example 2: in vivo efficacy in HT-1376 xenograft (bladder cancer model) in CB17-SCID mice
[2] = 3 mg/kg biw, day 21, groups 8-17
[3] = 3 mg/kg qw, day 21, groups 8-17
[4] = 5 mg/kg qw, day 21, groups 8-17

Structure (SMILES): CC[C@H](C)C(C(CC(=O)N1CCC[C@H]1[C@H](OC)[C@@H](C)C(=O)NC(C)[C@@H](O)c1ccccc1)OC)N(C)C(=O)[C@@H](NC(=O)C(C(C)C)N(C)C(=O)OCc1ccc(NC(=O)[C@H](CCCNC(N)=O)NC(=O)C(NC(=O)CCCC(=O)NCCC(=O)N(C)CC(=O)N(C)CC(=O)N(C)CC(=O)N(C)CC(=O)N(C)CC(=O)N(C)CC(=O)N(C)CC(=O)N(C)CC(=O)N(C)CC(=O)N(C)CC(=O)N[C@H]2CSCCC(=O)N3CN4CN(C3)C(=O)CCSC[C@H](NC(=O)[C@@H](CC(=O)O)NC(=O)[C@H](Cc3cccc5ccccc35)NC(=O)[C@@H]3CCCN3C2=O)C(=O)N[C@@H](CCSC)C(=O)N[C@@H](CCCCNC(=N)N)C(=O)N[C@@H](CC(=O)O)C(=O)N[C@@H](Cc2c[nH]c3ccccc23)C(=O)N[C@@H](CO)C(=O)N[C@@H]([C@@H](C)O)C(=O)N2CCC[C@H]2C(=O)N2C[C@H](O)C[C@H]2C(=O)N[C@@H](Cc2c[nH]c3ccccc23)C(=O)N[C@H](C(N)=O)CSCCC4=O)C(C)C)cc1)C(C)C (stereo partly drawn) [BCY8245, MMAE-PABC-Cit-Val-Glutaryl-BCY8234] (I: [Sar][Sar][Sar][Sar][Sar][Sar][Sar][Sar][Sar][Sar]CP[1Nal][dD]CM[hArg]DWSTP[Hyp]WC-NH2 / II: [ξV][Cit][PABC][ξNMeV]V[X1][Dolaproine]-X2; linker I:11-I:15-I:25 via TATA; linker I:N-II:N via X3)
- retention of MMAE in tumour versus plasma (in words) [1]: retained in the tumour longer than in plasma
- binding to human Nectin-4 in the SPR binding assay (in words) (human Nectin-4): excellent binding
- Kd (human Nectin-4; read-out: Human SPR Kd, bicyclic drug conjugates (Table 4)): 5.12 nM
- TGI (NCI-H292 xenograft; 3 mg/kg biw, day 14): 112.2%
- Tumor volume (TV) (NCI-H292 xenograft; 3 mg/kg biw, day 14): 65 mm^3
- TGI (NCI-H292 xenograft; 3 mg/kg qw, day 14): 101.4%
- Tumor volume (TV) (NCI-H292 xenograft; 3 mg/kg qw, day 14): 149 mm^3
- TGI (NCI-H292 xenograft; 5 mg/kg qw, day 14): 109.8%
- Tumor volume (TV) (NCI-H292 xenograft; 5 mg/kg qw, day 14): 83 mm^3
- Tumor volume (NCI-H292 xenograft; 3 mpk, biw, day 0 after the start of treatment): 162 mm^3
- Tumor volume (NCI-H292 xenograft; 3 mpk, biw, day 2): 243 mm^3
- Tumor volume (NCI-H292 xenograft; 3 mpk, biw, day 4): 211 mm^3
- Tumor volume (NCI-H292 xenograft; 3 mpk, biw, day 7): 101 mm^3
- Tumor volume (NCI-H292 xenograft; 3 mpk, biw, day 9): 100 mm^3
- Tumor volume (NCI-H292 xenograft; 3 mpk, biw, day 11): 87 mm^3
- T/C (NCI-H292 xenograft; 3 mpk, biw, day 14): 6.9%
- TGI (NCI-H292 xenograft; 3 mpk, biw, day 14): 112.2%
- Tumor Volume (Mean ± SEM) (NCI-H292 xenograft; 3 mpk, biw, day 14): 65 ± 3 mm^3
- Tumor volume (NCI-H292 xenograft; 3 mpk, biw, day 14): 65 mm^3
- Tumor volume (NCI-H292 xenograft; 3 mpk, qw, day 0 after the start of treatment): 160 mm^3
- Tumor volume (NCI-H292 xenograft; 3 mpk, qw, day 2): 220 mm^3
- Tumor volume (NCI-H292 xenograft; 3 mpk, qw, day 4): 266 mm^3
- Tumor volume (NCI-H292 xenograft; 3 mpk, qw, day 7): 218 mm^3
- Tumor volume (NCI-H292 xenograft; 3 mpk, qw, day 9): 167 mm^3
- Tumor volume (NCI-H292 xenograft; 3 mpk, qw, day 11): 161 mm^3
- T/C (NCI-H292 xenograft; 3 mpk, qw, day 14): 15.8%
- TGI (NCI-H292 xenograft; 3 mpk, qw, day 14): 101.4%
- Tumor Volume (Mean ± SEM) (NCI-H292 xenograft; 3 mpk, qw, day 14): 149 ± 43 mm^3
- Tumor volume (NCI-H292 xenograft; 3 mpk, qw, day 14): 149 mm^3
- Tumor volume (NCI-H292 xenograft; 5 mpk, qw, day 0 after the start of treatment): 160 mm^3
- Tumor volume (NCI-H292 xenograft; 5 mpk, qw, day 2): 176 mm^3
- Tumor volume (NCI-H292 xenograft; 5 mpk, qw, day 4): 191 mm^3
- Tumor volume (NCI-H292 xenograft; 5 mpk, qw, day 7): 105 mm^3
- Tumor volume (NCI-H292 xenograft; 5 mpk, qw, day 9): 82 mm^3
- Tumor volume (NCI-H292 xenograft; 5 mpk, qw, day 11): 91 mm^3
- T/C (NCI-H292 xenograft; 5 mpk, qw, day 14): 8.8%
- TGI (NCI-H292 xenograft; 5 mpk, qw, day 14): 109.8%
- Tumor Volume (Mean ± SEM) (NCI-H292 xenograft; 5 mpk, qw, day 14): 83 ± 8 mm^3
- Tumor volume (NCI-H292 xenograft; 5 mpk, qw, day 14): 83 mm^3
- tumor response (in words) (NCI-H292 xenograft; mouse, in vivo): causes regression of the tumor
- antitumor activity (in words) (HT-1376 xenograft; 1 mg/kg): slight antitumor activity
- TGI (HT-1376 xenograft; [2]): 72.3%
- Tumor volume (TV) (HT-1376 xenograft; [2]): 407 mm^3
- TGI (HT-1376 xenograft; [3]): 50.9%
- Tumor volume (TV) (HT-1376 xenograft; [3]): 603 mm^3
- TGI (HT-1376 xenograft; [4]): 66.0%
- Tumor volume (TV) (HT-1376 xenograft; [4]): 465 mm^3
- Tumor volume (HT-1376 xenograft; 1/3 mpk, qw, iv (1 mg/kg first week, 3 mg/kg following 2 weeks), day 0 after start of treatment (Table 14)): 164 ± 16 mm^3
- Tumor volume (HT-1376 xenograft; 1/3 mpk, qw, iv (1 mg/kg first week, 3 mg/kg following 2 weeks), day 2 (Table 14)): 184 ± 12 mm^3
- Tumor volume (HT-1376 xenograft; 1/3 mpk, qw, iv (1 mg/kg first week, 3 mg/kg following 2 weeks), day 4 (Table 14)): 206 ± 14 mm^3
- Tumor volume (HT-1376 xenograft; 1/3 mpk, qw, iv (1 mg/kg first week, 3 mg/kg following 2 weeks), day 7 (Table 14)): 265 ± 21 mm^3
- Tumor volume (HT-1376 xenograft; 1/3 mpk, qw, iv (1 mg/kg first week, 3 mg/kg following 2 weeks), day 9 (Table 14)): 291 ± 10 mm^3
- Tumor volume (HT-1376 xenograft; 1/3 mpk, qw, iv (1 mg/kg first week, 3 mg/kg following 2 weeks), day 11 (Table 14)): 281 ± 28 mm^3
- Tumor volume (HT-1376 xenograft; 1/3 mpk, qw, iv (1 mg/kg first week, 3 mg/kg following 2 weeks), day 14 (Table 14)): 335 ± 16 mm^3
- Tumor volume (HT-1376 xenograft; 1/3 mpk, qw, iv (1 mg/kg first week, 3 mg/kg following 2 weeks), day 16 (Table 14)): 354 ± 11 mm^3
- Tumor volume (HT-1376 xenograft; 1/3 mpk, qw, iv (1 mg/kg first week, 3 mg/kg following 2 weeks), day 18 (Table 14)): 309 ± 19 mm^3
- Tumor volume (HT-1376 xenograft; 1/3 mpk, qw, iv (1 mg/kg first week, 3 mg/kg following 2 weeks), day 21 (Table 14)): 347 ± 14 mm^3
- T/C (HT-1376 xenograft; 3 mpk, biw (Table 17)): 38.1%
- TGI (HT-1376 xenograft; 3 mpk, biw (Table 17)): 72.3%
- Tumor volume (HT-1376 xenograft; 3 mpk, biw, iv, day 0 after start of treatment (Table 15)): 154 ± 30 mm^3
- Tumor volume (HT-1376 xenograft; 3 mpk, biw, iv, day 2 (Table 15)): 248 ± 58 mm^3
- Tumor volume (HT-1376 xenograft; 3 mpk, biw, iv, day 5 (Table 15)): 203 ± 15 mm^3
- Tumor volume (HT-1376 xenograft; 3 mpk, biw, iv, day 7 (Table 15)): 273 ± 45 mm^3
- Tumor volume (HT-1376 xenograft; 3 mpk, biw, iv, day 9 (Table 15)): 356 ± 50 mm^3
- Tumor volume (HT-1376 xenograft; 3 mpk, biw, iv, day 12 (Table 15)): 391 ± 53 mm^3
